# In ChEMBL document CHEMBL3817845, “Development of CNS multi-receptor ligands: Modification of known D2 pharmacophores” (Bioorg Med Chem, 2016):
# How the values were obtained:
# [1] = biological target: Sodium-dependent serotonin transporter (Homo sapiens, UniProt P31645); assay: Displacement of [3H]Citalopram from human recombinant SERT incubated for […] by microbeta scintillation counting method
# [2] = biological target: 5-hydroxytryptamine receptor 7 (Homo sapiens, UniProt P34969); assay: Displacement of [3H]LSD from human recombinant 5HT7 receptor incubated for […] by microbeta scintillation counting method
# D(2) dopamine receptor = D(2) dopamine receptor (Homo sapiens, UniProt P14416); assay: Displacement of [3H]N-methylspiperone from human recombinant dopamine D2 receptor incubated for […] by microbeta scintillation counting method
# Histamine H1 receptor = Histamine H1 receptor (Homo sapiens, UniProt P35367); assay: Displacement of [3H]Pyrilamine from human recombinant histamine H1 receptor incubated for […] by microbeta scintillation counting method
# [3] = biological target: T1, 5-hydroxytryptamine receptor 2C (5HT2C) (Homo sapiens, UniProt P28335); assay: (§1) Displacement of [3H]Mesulergine from human recombinant 5HT2C receptor incubated for […] by microbeta scintillation counting method; conditions: human, recombinant 5HT2C receptor, probe [3H]Mesulergine
# T1 sequence (P28335 whole entry): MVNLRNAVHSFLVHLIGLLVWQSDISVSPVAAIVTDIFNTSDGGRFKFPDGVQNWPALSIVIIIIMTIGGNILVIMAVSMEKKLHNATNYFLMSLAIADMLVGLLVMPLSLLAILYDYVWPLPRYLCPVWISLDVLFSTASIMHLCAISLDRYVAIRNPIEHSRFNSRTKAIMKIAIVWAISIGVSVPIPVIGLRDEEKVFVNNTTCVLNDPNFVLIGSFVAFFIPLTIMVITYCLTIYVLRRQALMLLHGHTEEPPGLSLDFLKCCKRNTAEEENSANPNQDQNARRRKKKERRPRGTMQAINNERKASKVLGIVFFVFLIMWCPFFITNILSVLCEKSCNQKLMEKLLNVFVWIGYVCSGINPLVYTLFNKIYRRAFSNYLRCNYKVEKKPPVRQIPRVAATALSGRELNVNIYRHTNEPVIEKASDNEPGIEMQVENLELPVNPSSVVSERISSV
# [4] = biological target: T2, 5-hydroxytryptamine receptor 2A (Homo sapiens, UniProt P28223); assay: Displacement of [3H]Ketanserin from human recombinant 5HT2A receptor incubated for […] by microbeta scintillation counting method
# [5] = biological target: 5-hydroxytryptamine receptor 2B (Homo sapiens, UniProt P41595); assay: Displacement of [3H]LSD from human recombinant 5HT2B receptor incubated for […] by microbeta scintillation counting method
# D(3) dopamine receptor [6] = biological target: T3, D(3) dopamine receptor (Homo sapiens, UniProt P35462); assay: Displacement of [3H]N-methylspiperone from human recombinant dopamine D3 receptor incubated for […] by microbeta scintillation counting method
# D(4) dopamine receptor = biological target: T4, D(4) dopamine receptor (Homo sapiens, UniProt P21917); assay: Displacement of [3H]N-methylspiperone from human recombinant dopamine D4 receptor incubated for […] by microbeta scintillation counting method
# T4 sequence (P21917 whole entry): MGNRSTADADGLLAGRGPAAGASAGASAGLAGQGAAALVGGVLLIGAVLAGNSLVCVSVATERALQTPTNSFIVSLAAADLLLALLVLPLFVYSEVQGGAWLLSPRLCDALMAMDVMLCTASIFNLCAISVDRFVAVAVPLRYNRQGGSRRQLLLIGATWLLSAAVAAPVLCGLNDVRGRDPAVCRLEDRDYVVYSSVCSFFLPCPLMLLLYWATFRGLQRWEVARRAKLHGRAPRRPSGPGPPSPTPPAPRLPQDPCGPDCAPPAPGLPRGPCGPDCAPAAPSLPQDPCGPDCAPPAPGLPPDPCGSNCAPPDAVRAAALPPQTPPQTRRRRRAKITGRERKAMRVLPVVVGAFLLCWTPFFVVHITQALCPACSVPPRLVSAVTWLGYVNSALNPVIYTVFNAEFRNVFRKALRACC
# [7] = biological target: T5, 5-hydroxytryptamine receptor 1A (Homo sapiens, UniProt P08908); assay: (§2) Displacement of [3H]8-OH-DPAT from human recombinant 5HT1A receptor incubated for […] by microbeta scintillation counting method
# T5 sequence (P08908 whole entry): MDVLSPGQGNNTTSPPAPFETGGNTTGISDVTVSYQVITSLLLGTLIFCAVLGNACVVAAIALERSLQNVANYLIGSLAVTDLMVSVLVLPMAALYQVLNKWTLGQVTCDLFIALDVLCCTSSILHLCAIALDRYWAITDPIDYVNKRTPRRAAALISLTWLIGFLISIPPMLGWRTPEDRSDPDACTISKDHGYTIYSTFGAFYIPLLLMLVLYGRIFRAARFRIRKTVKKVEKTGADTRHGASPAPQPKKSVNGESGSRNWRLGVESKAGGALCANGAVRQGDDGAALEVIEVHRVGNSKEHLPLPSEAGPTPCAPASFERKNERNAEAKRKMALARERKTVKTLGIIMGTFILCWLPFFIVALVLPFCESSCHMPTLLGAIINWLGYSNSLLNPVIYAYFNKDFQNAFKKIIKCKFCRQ
# [8] = biological target: T6, 5-hydroxytryptamine receptor 2C (Homo sapiens, UniProt P28335); assay: as §1
# T6 sequence (P28335 whole entry): T1 sequence (P28335 whole entry)
# [9] = Lipophilicity, log P of the compound; assay type: physicochemical; conditions: octanol/water
# [10] = biological target: T2, 5-hydroxytryptamine receptor 2A; assay: Binding affinity to 5HT2A receptor (unknown origin)
# D(3) dopamine receptor [11] = biological target: T3, D(3) dopamine receptor; assay: Displacement of [125I]-IABN from human recombinant dopamine D3 receptor expressed in HEK293 cell membrane incubated for 60 mins filtration binding assay
# [12] = biological target: T7, 5-hydroxytryptamine receptor 1A (Homo sapiens) (UniProt P08908); assay: as §2
# T7 sequence (whole entry): T5 sequence (P08908 whole entry)
# Sequence of 5-hydroxytryptamine receptor 7 (P34969 whole entry): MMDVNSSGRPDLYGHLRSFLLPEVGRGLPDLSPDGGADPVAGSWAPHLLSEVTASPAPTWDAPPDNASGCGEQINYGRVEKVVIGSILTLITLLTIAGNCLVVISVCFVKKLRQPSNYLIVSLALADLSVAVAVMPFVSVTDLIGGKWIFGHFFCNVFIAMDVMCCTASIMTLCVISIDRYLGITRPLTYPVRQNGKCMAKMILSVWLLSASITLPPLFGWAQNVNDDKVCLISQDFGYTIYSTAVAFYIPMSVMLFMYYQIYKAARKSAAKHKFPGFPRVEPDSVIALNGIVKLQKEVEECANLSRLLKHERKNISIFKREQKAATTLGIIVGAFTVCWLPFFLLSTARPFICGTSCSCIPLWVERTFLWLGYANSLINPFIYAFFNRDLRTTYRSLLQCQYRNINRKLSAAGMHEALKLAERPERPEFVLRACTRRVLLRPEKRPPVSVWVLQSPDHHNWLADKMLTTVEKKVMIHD
# Sequence of 5-hydroxytryptamine receptor 2B (P41595 whole entry): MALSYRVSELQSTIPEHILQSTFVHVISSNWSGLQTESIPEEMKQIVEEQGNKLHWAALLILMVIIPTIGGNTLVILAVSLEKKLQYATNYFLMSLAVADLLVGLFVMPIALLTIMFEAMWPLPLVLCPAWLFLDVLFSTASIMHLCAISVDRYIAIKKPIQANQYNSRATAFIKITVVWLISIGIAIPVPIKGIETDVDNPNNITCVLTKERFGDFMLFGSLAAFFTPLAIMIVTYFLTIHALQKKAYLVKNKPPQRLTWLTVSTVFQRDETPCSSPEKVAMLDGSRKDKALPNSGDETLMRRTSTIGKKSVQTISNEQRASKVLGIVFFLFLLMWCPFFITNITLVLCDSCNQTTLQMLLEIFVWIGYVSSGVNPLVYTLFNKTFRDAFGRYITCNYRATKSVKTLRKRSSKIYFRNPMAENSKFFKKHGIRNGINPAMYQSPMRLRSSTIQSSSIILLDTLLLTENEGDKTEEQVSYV
# Sequence of D(2) dopamine receptor (P14416 whole entry): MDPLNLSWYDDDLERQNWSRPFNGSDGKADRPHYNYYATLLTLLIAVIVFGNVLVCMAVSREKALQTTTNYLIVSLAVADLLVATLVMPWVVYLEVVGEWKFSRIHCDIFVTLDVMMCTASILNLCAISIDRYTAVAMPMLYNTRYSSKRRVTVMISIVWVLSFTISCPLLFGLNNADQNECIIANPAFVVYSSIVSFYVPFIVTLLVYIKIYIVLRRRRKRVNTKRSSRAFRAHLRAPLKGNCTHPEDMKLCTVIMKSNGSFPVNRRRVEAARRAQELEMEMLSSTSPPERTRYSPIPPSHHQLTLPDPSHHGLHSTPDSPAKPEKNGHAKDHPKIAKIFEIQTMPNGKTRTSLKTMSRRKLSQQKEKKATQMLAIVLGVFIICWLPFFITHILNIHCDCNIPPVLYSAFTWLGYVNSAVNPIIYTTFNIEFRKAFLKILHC
# Sequence of Histamine H1 receptor (P35367 whole entry): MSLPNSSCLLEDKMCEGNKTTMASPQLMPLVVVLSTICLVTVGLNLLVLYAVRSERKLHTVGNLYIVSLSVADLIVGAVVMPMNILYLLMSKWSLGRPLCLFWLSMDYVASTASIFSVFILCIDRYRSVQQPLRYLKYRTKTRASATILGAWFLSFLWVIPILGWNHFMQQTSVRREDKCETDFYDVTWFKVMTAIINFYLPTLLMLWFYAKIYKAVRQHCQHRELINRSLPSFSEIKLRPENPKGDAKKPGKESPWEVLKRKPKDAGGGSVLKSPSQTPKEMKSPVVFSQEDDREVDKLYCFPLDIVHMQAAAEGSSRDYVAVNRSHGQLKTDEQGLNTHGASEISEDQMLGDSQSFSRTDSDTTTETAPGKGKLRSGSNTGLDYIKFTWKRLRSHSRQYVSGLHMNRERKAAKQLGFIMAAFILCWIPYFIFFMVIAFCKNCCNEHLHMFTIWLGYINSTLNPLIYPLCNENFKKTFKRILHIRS
# T2 sequence (P28223 whole entry): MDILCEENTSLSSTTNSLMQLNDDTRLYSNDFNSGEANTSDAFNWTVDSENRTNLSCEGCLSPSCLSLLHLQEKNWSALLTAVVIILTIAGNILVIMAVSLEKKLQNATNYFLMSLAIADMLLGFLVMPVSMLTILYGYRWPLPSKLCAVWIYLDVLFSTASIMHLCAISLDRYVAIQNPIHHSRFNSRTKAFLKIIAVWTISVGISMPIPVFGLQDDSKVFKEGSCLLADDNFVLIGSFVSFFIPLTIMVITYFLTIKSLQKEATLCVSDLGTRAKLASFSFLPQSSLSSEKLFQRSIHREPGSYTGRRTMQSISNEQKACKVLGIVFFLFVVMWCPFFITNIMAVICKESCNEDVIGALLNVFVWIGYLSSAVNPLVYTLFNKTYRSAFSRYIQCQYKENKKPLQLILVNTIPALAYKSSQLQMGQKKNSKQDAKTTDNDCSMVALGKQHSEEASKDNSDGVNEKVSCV
# T3 sequence (P35462 whole entry): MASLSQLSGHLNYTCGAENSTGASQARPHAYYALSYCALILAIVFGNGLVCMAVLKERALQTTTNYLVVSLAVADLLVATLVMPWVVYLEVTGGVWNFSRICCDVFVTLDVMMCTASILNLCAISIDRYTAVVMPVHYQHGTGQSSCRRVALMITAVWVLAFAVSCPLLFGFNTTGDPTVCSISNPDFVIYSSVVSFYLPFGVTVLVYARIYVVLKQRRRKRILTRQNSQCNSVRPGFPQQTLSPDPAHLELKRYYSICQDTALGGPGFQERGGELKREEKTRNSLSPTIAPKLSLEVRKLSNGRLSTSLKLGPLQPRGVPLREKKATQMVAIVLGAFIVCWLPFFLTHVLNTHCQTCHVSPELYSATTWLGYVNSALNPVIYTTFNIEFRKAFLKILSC
SMILES,Ki [2] [nM],Ki (D(2) dopamine receptor) [nM],Ki (Histamine H1 receptor; read-out: Ki) [nM],inhibition at […] [3] [%],Ki [5] [nM],Ki (D(3) dopamine receptor [6]) [nM],Ki (D(4) dopamine receptor) [nM],Ki [7] [nM],Ki [4] [nM],other results
O=C1NCN(c2ccccc2)C12CCN(CCCCc1nc3ccccc3o1)CC2,1510,10,535,< 50,905,21,118,382,,inhibition [1]: < 50%; inhibition [4]: < 50%
O=C1NCN(c2ccccc2)C12CCN(CCCCc1nc3cc(Cl)ccc3s1)CC2,,18,263,,36,499,,102,,Ki ([1]; read-out: Ki): 3060 nM; Ki (Histamine H1 receptor; read-out: pKi (converted)): 275 nM; Ki [8]: 614 nM
OC1(c2ccc(Cl)cc2)CCN(CCCCc2nc3ccccc3s2)CC1,,,,,,291,,,,
O=C(CCCN1CCC(O)(c2ccc(Cl)cc2)CC1)c1ccc(F)cc1 [HALOPERIDOL],,,,,,,,,,logP [9]: 3.49
O=C(CCCN1CCC(n2c(O)nc3ccccc32)CC1)c1ccc(F)cc1 [BENPERIDOL],,,,,,,,,,Ki [10]: 1.2 nM; Ki (D(3) dopamine receptor [11]): 0.29 nM
O=C(CCCN1CCC2(CC1)C(=O)NCN2c1ccccc1)c1ccc(F)cc1 [SPIPERONE],,,,,,,,,,logP [9]: 2.78
O=C(CCCCN1CCC(n2c(=O)[nH]c3cc(Cl)ccc32)CC1)c1nc2ccccc2s1,,,,,,64,,,,
OC1(c2ccc(Cl)cc2)CCN(CCCc2nc3ccccc3s2)CC1,189,763,,,,28,163,34,168,
O=C1NCN(c2ccccc2)C12CCN(CCCCc1c[nH]c3ccccc13)CC2,> 10000,,273,< 50,202,31,1.6,376,,Ki ([1]; read-out: Ki): 10 nM; Ki ([1]; read-out: pKi (converted)): 4.68 nM; logP [9]: 3.52
OC1(c2ccc(Cl)cc2)CC2CCC(C1)N2CCCCc1nc2ccccc2s1 (stereo not drawn),1010,,,,342,,,,,Ki ([1]; read-out: Ki): 180 nM
O=C(CCCCN1CCN(C(c2ccc(F)cc2)c2ccc(F)cc2)CC1)c1nc2ccccc2s1,562,159,,,,233,1220,,1080,inhibition [12]: < 50%
OC1(c2ccc(Cl)cc2)CCN(CCCCc2nc3ccccc3o2)CC1,,438,,,,942,229,3150,5970,inhibition [2]: < 50%
O=C(CCCCN1CCC2(CC1)C(=O)NCN2c1ccccc1)c1nc2ccccc2s1,,,,< 50,,18,162,,,
Fc1ccc(C(c2ccc(F)cc2)N2CCN(CCCCc3nc4ccccc4s3)CC2)cc1,778,195,,,,33,68,,519,inhibition [12]: < 50%
O=C1NCN(c2ccccc2)C12CCN(CCCCc1nc3ccccc3s1)CC2,626,24,504,< 50,122,32,132,195,> 10000,inhibition [1]: < 50%
Cl.O=C(CCCCN1C2CCC1CC(O)(c1ccc(Cl)cc1)C2)c1nc2ccccc2s1 (stereo not drawn),80,,1030,< 50,758,,,,,Ki ([1]; read-out: Ki): 54 nM; Ki ([1]; read-out: pKi (converted)): 4.68 nM; pKi (D(2) dopamine receptor): 6.74; inhibition [4]: < 50%; inhibition [12]: < 50%
